Assay: Hygroscopicity, VTI vapor sorption analyzer
Format: physicochemical
Experimental: Hygroscopicity data was obtained on a VTI Symmetrical Vapor Sorption Analyzer Model SGA-1. Data was collected at room temperature from 5-95% relative humidity and back, 5% relative humidity change per step. Equilibrium conditions were 0.01 weight percent change in 5 minutes with a maximum equilibration time of 180 minutes. […] When equilibrated back down to 5% RH, the material returned back to approximately its dry weight.

Which results are given for `Cc1nnc(C(=O)NC(C)(C)c2nc(C(=O)NCc3ccc(F)cc3)c(O)c(=O)n2C)o1`?
weight increase when equilibrated at 95% RH (95% RH at 25° C.): 1.8%; XRPD analysis of the material after the hygroscopicity experiment (phase stability) (after 5-95% relative humidity cycle at room temperature): had not changed phases
